Several values for one entry are separate records, joined by “and”; a condition that tells them apart may be missing. Equal values may be shown once. Read-outs that look alike come from different tables or passages of the source.
Columns and labels:
SiHa cells [1] = test: Effect of phenylpyruvate (MCT pan-inhibition) on cytotoxicity under anoxia; settings: anoxic SiHa cells
Protocol: Effect of phenylpyruvate (PPV, 100 or 500 μM) on proliferation of SiHa cells following 4 h
exposure under anoxia to PPV alone (A) or with cmpd 4a at pHe 7.4 (B) or pHe 6.5 (C). 3000 cells/well
were seeded in 96 well plates, and IC 50 values determined as in Figure S6. Each data point is mean ±
SEM for three replicate cultures in the same experiment.

SiHa cells [2] = test: Metabolism and uptake of ester 4b in anoxic single cell suspensions; format: in vitro ADME; settings: anoxic SiHa suspensions after addition of 4b (150 μM), at 30 min
Source text: If the anionic sidechain of the BTO acids results in low intracellular concentrations, with reductive metabolism occurring largely at the cell surface, the corresponding esters would be expected to provide improved delivery to the intracellular compartment (consistent with their higher cytotoxic potencies, as noted in Section 2.5). To test this, we compared the metabolism of ester 4b (Figure 7A) with its corresponding acid 4a (Figure 7B) by monitoring extracellular concentrations in anoxic SiHa suspensions. The rates of metabolism of both compounds were unaffected by pHe, consistent with the results for 4a in Figure 5B. The ester was metabolized more rapidly than the acid, with only a trace of acid 4a detected transiently as an extracellular metabolite (Figure 7A). The major metabolites were the less polar 1-oxide, 15a, and the 1-oxide of the ester, 16a. In separate experiments with higher initial concentrations of 4b, 15a was again the main extracellular metabolite (Figure 7C, left). […] Compound 4b itself was not detected in the intracellular samples, presumably reflecting a lack of retention in cells and the very low intracellular volume, which will compromise analytical sensitivity (only 2 × 10^6 cells were collected for each analysis in this experiment).
Figure 7 Metabolism of BTO ester 4b and the corresponding acid 4a by anoxic SiHa single cell suspensions (2 × 10^6 cells/mL). (A) Extracellular concentrations following the addition of 4b (50 μM). (B) Extracellular concentrations following the addition of 4a (50 μM). (C) Extracellular (left) and intracellular (right) concentrations following the addition of 4b (150 μM). Values are means and errors are SEM for 3 replicate cultures.

FaDu cells = test: IC50 assay (inhibition of proliferation, 4 h exposure, SRB); format: cell-based; settings: for IC50: Homo sapiens, 4 h
Protocol: Cells were seeded in 96-well plates (SiHa or FaDu 1500 cells/well, UT-SCC-74B 800 cells/well) in 100 μL. After incubation for 2 h, the drugs were added in 50 μL of the same titrated medium at 3× the final concentration to duplicate the wells. After a further 4 h the plates were checked for drug precipitation using a phase contrast microscope, then drugs were removed by aspirating and washing with the standard (pH 7.4) medium, then aspirating again and adding 150 μL of the medium. Cultures were then grown for 5 days before staining with sulphorhodamine B and measuring absorbance, with the estimation of IC50 values using 4-parameter logistic regression, as previously carried out [85].

[3] = test system: MDCK-II cells with forced expression of BCRP or Pgp; test: IC50 under anoxia in cells with forced expression of efflux transporters; settings: MDCK-II cell lines under anoxia, preliminary experiments
Protocol: expression of BCRP or Pgp.
Cells were seeded at 300 cells/well in DMEM with 10% FBS in 96 well plates in an
anaerobic chamber, allowed to attach for 2 h then exposed to drugs for 4 h under anoxia. Cells were
then washed with fresh medium and grown for 5 days under aerobic conditions before staining with
SRB. Values are mean ± SEM from 2 separate experiments.

[4] = Solubility in AlphaMEM + 5% FBS, pH 7.4; settings: culture medium (AlphaMEM + 5% FBS), pH 7.4, plasma or biological fluid, kinetic from dmso stock
SiHa and SiHa/POR cells = test: IC50 in SiHa versus SiHa/POR cultures under anoxia; format: cell-based; settings: 4 h under anoxia, pHe 7.4
Protocol: The lack of effect of POR over-expression on the reductive metabolism of the BTO acids in intact cells led us to compare the cytotoxicities of SN30000 (2), 4a, and 7a in SiHa/POR, and the parental line, under anoxia (Figure 6).
Drug exposure was for 4 h under anoxia, at pHe 7.4, with regrowth under aerobic conditions for 5 days before staining with SRB. Values are means and SEM for the two experiments, each with triplicate cultures at each drug concentration. TEXT PRINTED IN THE PICTURE: Cmpd 2: Ratio 6.75 ± 0.20 | Cmpd 4a: Ratio 3.40 ± 0.22 | Cmpd 7a: Ratio 2.67 ± 0.46

SiHa cells [5] = test: IC50 assay modified for chronic hypoxia (oxia, hypoxia, anoxia); format: cell-based; settings: for IC50: Homo sapiens
Protocol: There are relatively few viable cells in tumors at O2 concentrations as low as in the above anoxic experiments. In addition, extensive changes in gene expression occur under chronic exposure to intermediate O2 concentrations (chronic hypoxia), including the expression of proteins that regulate pHi. […] Therefore, oxic and anoxic exposures were also tested in these same experiments. The 24 h adaptation to hypoxia had little effect on the subsequent growth of the cultures at either pHe value (Figure S6).
To minimize problems with poor cell attachment under chronic hypoxia, the drugs were added from a 3-fold dilution series made in a separate plate, rather than by serial dilution in the plates containing the cells. In addition, the drugs were removed after the 4 h exposure by centrifuging the plates (200g × 5 min) prior to each aspiration. The same modifications were used for the oxic drug exposures in these experiments.

UT-SCC-74B cells = test: IC50 assay (inhibition of proliferation, 4 h exposure, SRB); format: cell-based; settings: UT-SCC-74B, UT-SCC-74B; for IC50: Homo sapiens, 4 h
Protocol: Cells were seeded in 96-well plates (SiHa or FaDu 1500 cells/well, UT-SCC-74B 800 cells/well) in 100 μL. After incubation for 2 h, the drugs were added in 50 μL of the same titrated medium at 3× the final concentration to duplicate the wells. After a further 4 h the plates were checked for drug precipitation using a phase contrast microscope, then drugs were removed by aspirating and washing with the standard (pH 7.4) medium, then aspirating again and adding 150 μL of the medium. Cultures were then grown for 5 days before staining with sulphorhodamine B and measuring absorbance, with the estimation of IC50 values using 4-parameter logistic regression, as previously carried out.
The medium and plasticware was equilibrated in the chamber for 3 days prior to use. In the anoxia experiments, FaDu cells were plated in poly-L-lysine coated plates (Corning Cat # 356461) to improve attachment. […]
Footnotes: a Number of experiments. b Anoxic cytotoxicity ratio = oxic IC50/anoxic IC50. c pH
cytotoxicity ratio = IC50 at pHe 7.4/ IC50 at pHe 6.5. d Overall ratio = oxic IC50 pHe 7.4 / anoxic IC50 pHe
6.5. Values are means and errors are SEM. For ratios, the errors are root mean square SEM. […]

## O=C(O)CCc1n[n+]([O-])c2ccccc2[n+]1[O-] [Compound 4a, 3-(2-Carboxyethyl)benzo[e][1,2,4]triazine 1,4-Dioxide]
SiHa cells [1]
  Effect of pan-inhibition of MCT by phenylpyruvate on sensitivity: no effect
SiHa cells [2]
  Maximum intracellular concentration: 4.1 mM
FaDu cells
  TMR (oxic IC50 pHe 7.4/anoxic IC50 pHe 6.5): 9.36 ± 1.68
FaDu cells; pHe 6.5, 4 h, anoxic, read-out: Anoxic IC50
  IC50: 142 ± 21 µM
FaDu cells; pHe 6.5, 4 h, oxic, read-out: Oxic IC50
  IC50: 507 ± 27 µM
FaDu cells; pHe 7.4, 4 h, anoxic, read-out: Anoxic IC50
  IC50: 325 ± 18 µM
FaDu cells; pHe 7.4, 4 h, oxic, read-out: Oxic IC50
  IC50: 1330 ± 136 µM
FaDu cells; anoxic
  PCR Anoxic (IC50 at pHe 7.4/IC50 at pHe 6.5): 2.29 ± 0.36
FaDu cells; oxic
  PCR oxic (IC50 at pHe 7.4/IC50 at pHe 6.5): 2.62 ± 0.30
FaDu cells; pHe 6.5
  ACR (oxic IC50/anoxic IC50): 3.58 ± 0.56
FaDu cells; pHe 7.4
  ACR (oxic IC50/anoxic IC50): 4.08 ± 0.48
[3]
  Effect of overexpression of BCRP or Pgp efflux transporters on sensitivity: no effect
[4]
  solubility: 17.1 mM
SiHa and SiHa/POR cells
  IC50 ratio SiHa / SiHa/POR (fold lower IC50 in POR cell line): 3.40 ± 0.22 and 3.4
SiHa cells [5]; 0.2% O2
  PCR (IC50 for pHe 7.4/IC50 for pHe 6.5): 1.39 ± 0.19
SiHa cells [5]; 20% O2
  PCR (IC50 for pHe 7.4/IC50 for pHe 6.5): 1.98 ± 0.93
SiHa cells [5]; <0.01% O2
  PCR (IC50 for pHe 7.4/IC50 for pHe 6.5): 1.86 ± 0.59
SiHa cells [5]; 0.2% O2 (24 h before and during 4 h exposure), pHe 6.5
  IC50: 308 ± 1 µM
SiHa cells [5]; 0.2% O2 (24 h before and during 4 h exposure), pHe 7.4
  IC50: 428 ± 57 µM
SiHa cells [5]; 4 h, 20% O2, pHe 6.5, 4 h
  IC50: 707 ± 321 µM
SiHa cells [5]; 4 h, 20% O2, pHe 7.4, 4 h
  IC50: 1400 ± 162 µM
SiHa cells [5]; 4 h, <0.01% O2, pHe 6.5, 4 h
  IC50: 160 ± 45 µM
SiHa cells [5]; 4 h, <0.01% O2, pHe 7.4, 4 h
  IC50: 298 ± 44 µM
SiHa cells [5]; pHe 6.5
  ACR (IC50 for 20% O2/IC50 for <0.01% O2): 4.42 ± 2.36
  HCR (IC50 for 20% O2/IC50 for 0.2% O2): 2.30 ± 1.04
SiHa cells [5]; pHe 7.4
  ACR (IC50 for 20% O2/IC50 for <0.01% O2): 4.70 ± 0.88
  HCR (IC50 for 20% O2/IC50 for 0.2% O2): 3.28 ± 0.58
UT-SCC-74B cells; pHe 6.5, 4 h, 20% O2, read-out: Oxic IC50
  IC50: 297 ± 74 µM
UT-SCC-74B cells; pHe 6.5, 4 h, <0.01% O2, read-out: Anoxic IC50
  IC50: 97.6 ± 12.3 µM
UT-SCC-74B cells; pHe 7.4, 4 h, 20% O2, read-out: Oxic IC50
  IC50: 863 ± 66 µM
UT-SCC-74B cells; pHe 7.4, 4 h, <0.01% O2, read-out: Anoxic IC50
  IC50: 225 ± 26 µM
UT-SCC-74B cells
  TME ratio (oxic IC50 pHe 7.4/anoxic IC50 pHe 6.5): 8.84 ± 1.30
UT-SCC-74B cells; anoxic
  PCR Anoxic (IC50 at pHe 7.4/IC50 at pHe 6.5): 2.31 ± 0.39 and 2.9
UT-SCC-74B cells; oxic
  PCR oxic (IC50 at pHe 7.4/IC50 at pHe 6.5): 2.91 ± 0.76 and 2.3
UT-SCC-74B cells; pHe 6.5
  ACR (oxic IC50/anoxic IC50): 3.04 ± 0.85
UT-SCC-74B cells; pHe 7.4
  ACR (oxic IC50/anoxic IC50): 3.84 ± 0.53
